# Measurements reported in patent publication US8735150B2, “Methods for detecting embryonic stem cells, induced pluripotent stem cells, or cells undergoing reprogramming to produce induced pluripotent stem cells” (New York University, priority 2010, dated 2014).
# Columns and labels:
# iPSC = test: CDy1 staining of iPSC colonies generated from Oct4-GFP transgenic mouse MEF; type: cell-based
# Description: The retroviral packaging cell, PlatE cell, was maintained in DMEM containing 10% FBS, 100 U/ml penicillin, 100 μg/ml streptomycin, 10 μg/mlblasticidin S, and 1 μg/ml puromycin. For the generation of retroviruses, 40 μg of each retroviral vector expressing each mouse Oct4, Sox2, Klf4, and c-Myc was transfected together using Lipofectamine™ 2000 (Invitrogen, Carlsbad, Calif.) into PlatE cells plated at a density of 8×10^6 cells/10 cm cell culture dish and cultured overnight in DMEM containing 10% FBS. Medium was changed five hours after transfection to normal maintenance medium and incubated further in a humidified atmosphere of 5% CO2 and 95% air at 37° C. Culture supernatant was harvested 48 hours after transfection, filtered through a 0.45 μm syringe filter, concentrated by using amicon ultra-15 Centrifugal filter units (Millipore, Billerica, Mass.), and stored at −80° C. until use. For reprogramming, MEFs prepared from E13.5 B6; CBA-Tg(Pou5f1-EGFP)2Mnn/J mouse (Jackson Laboratory, Bar Harbor, Me.) embryo were infected with retrovirus mixture eight hours later. Polybrene (Sigma-Aldrich, St. Louis, Mo.) was added at a concentration of 10 μg/ml to increase virus adsorption. Infected MEFs were harvested 48 hours later by trypsinization and plated onto mytomycin C treated MEF feeder cells. The cells were maintained in mESC culture medium that was changed every day until designated time points.
# The reprogramming was performed in a 6-well culture dish by retroviral introduction of four transcriptions factors: Oct4, Sox2, Klf4, and c-Myc (Takahashi et al., “Induction of Pluripotent Stem Cells from Mouse Embryonic and Adult Fibroblast Cultures by Defined Factors,” Cell, 126(4):663-676 (2006), which is hereby incorporated by reference in its entirety). iPSC generation was verified by GFP expression, alkaline phosphatase assay, and immunostaining of SSEA-1 at 17 days post infection (“dpi”). […] When the 155 colonies grown in 6-well plate cells were treated with CDy1 at 17 dpi, 101 colonies (65%) were both CDy1 and GFP positive, 26 (17%) were CDy1-only positive, 4 (3%) were GFP-only positive and 24 (15%) were negative both for CDy1 and GFP, despite the fact that the morphology of the colonies was indistinguishable (FIG. 9).
# In a cell culture treated with CDy1 at an earlier time point of iPSC generation (10 dpi), increasing numbers of CDy1-stained colonies started to show GFP signal during the following days (FIG. 10A). To perform a more systematic analysis, the cells were stained with CDy1 at 2 dpi (i.e., when iPSC was not distinguishable by any means) and the CDy1 and GFP signals were tracked by daily acquisition of cell images using an ImageXpress^MICRO system. At 10 dpi, when small colonies started to appear, 342 CDy1-positive but GFP-negative colonies were selected and their GFP expression was followed until 25 dpi. An increasing number of colonies started to express GFP during this period, and 338 (99%) out of the 342 tracked colonies were GFP-positive at 25 dpi (FIG. 10B).
# mESC = test: Comparison of CDy1 and ALDEFLUOR staining in mESC; type: cell-based, mouse; details: fluorescence microscopy
# Description: (§1) In this experiment, the cells cultured on 6-well plates were incubated with 1 μM ALDEFLUOR® for one hour at 37° C. and then washed with PBS three times before ALDEFLUOR® assay buffer was added. Bright field (“B.F”) and fluorescence (FITC filter for ALDEFLUOR® and TRITC filter for CDy1) images were taken using a Nikon ECLIPSE Ti fluorescence microscope (Scale bars, 100 μm).
# (§2) Among the few fluorescent dyes used for stem cell staining (Zijlmans et al., “Modification of Rhodamine Staining Allows Identification of Hematopoietic Stem Cells with Preferential Short-term or Long-term Bone Marrow-Repopulating Ability,” Proc. Natl. Acad. Sci. USA, 92:8901-8905 (1995), which is hereby incorporated by reference in its entirety) is ALDEFLUOR® which employs a fluorescent substrate BODIPY-aminoacetaldehyde for aldehyde dehydrogenase (ALDH)1A1 (Storms et al., “Isolation of Primitive Human Hematopoietic Progenitors on the Basis of Aldehyde Dehydrogenase Activity,” Proc. Natl. Acad. Sci. USA, 96: 9118-9123 (1999), which is hereby incorporated by reference in its entirety). It has been used to identify and isolate certain types of stem cells including hematopoietic, neural, and mammary stem cells as well as cancer stem cells. Whether or not ALDEFLUOR® stains ESC has not been known. […] The stemness of hESC BG01V used in this study was verified by immunocytochemical staining of TRA-1-60 (FIG. 14).
# human ESC (hESC) (BG01V) = test: Comparison of CDy1 and ALDEFLUOR staining in hESC; type: cell-based; details: fluorescence microscopy
# Description: as §1
# BG01V cells cultured on MEF were selectively stained by CDy1. The expression of hESC marker TRA-1-60 in the CDy1-stained BG01V cells was detected by immunofluorescence staining (Scale bar, 100 μm).
# Among the few fluorescent dyes used for stem cell staining (Zijlmans et al., “Modification of Rhodamine Staining Allows Identification of Hematopoietic Stem Cells with Preferential Short-term or Long-term Bone Marrow-Repopulating Ability,” Proc. Natl. Acad. Sci. USA, 92:8901-8905 (1995), which is hereby incorporated by reference in its entirety) is ALDEFLUOR® which employs a fluorescent substrate BODIPY-aminoacetaldehyde for aldehyde dehydrogenase (ALDH)1A1 (Storms et al., “Isolation of Primitive Human Hematopoietic Progenitors on the Basis of Aldehyde Dehydrogenase Activity,” Proc. Natl. Acad. Sci. USA, 96: 9118-9123 (1999), which is hereby incorporated by reference in its entirety). […]
# [1] = tested on: human lung cancer cell line H522; test: Comparison of CDy1 and ALDEFLUOR staining in H522; type: cell-based; details: fluorescence microscopy
# Description: as §1, §2
# [2] = tested on: Oct4-GFP transgenic MEF transfected with Oct4, Sox2, Klf4 and c-Myc; test: CDy1 staining of cells at early stages of reprogramming (fluorescence microscopy); type: cell-based, mouse; details: incubated for one hour
# Description: Oct4-GFP transgenic MEF transfected with retrovirus expressing Oct4, Sox2, Klf4, and c-Myc were incubated with CDy1 at 3, 5, 7, and 9 dpi for one hour.
# After excess CDy1 was washed out by replacing culture medium, fluorescent cell images were taken using fluorescence microscope.
# At 3 and 5 dpi, any dramatic morphological differences between the cells were not observed by phase contrast bright field microscopy (FIG. 16).
# [3] = tested on: cells undergoing reprogramming to induced pluripotent stem cells (Oct4-GFP transgenic MEF); test: FACS isolation of cells undergoing reprogramming with CDy1 and counting of GFP-positive iPS cell colonies; type: cell-based, mouse; details: sorted by FACS at 10 dpi, 7% of total cell number
# Description: Oct4-GFP transgenic mouse embryonic fibroblasts (MEF) transfected with retrovirus expressing Oct4, Sox2, Klf4, and c-Myc were incubated with CDy1 at 10 days post infection (dpi). The cells were harvested using trypsin-EDTA and CDy1^bright and CDy1^dim cells defined as 7% of the total cell number at each end were collected by FACS, plated in culture media, and allowed to grow until 20 dpi for counting the number of induced pluripotent stem (“iPS”) cell colonies which were identified by GFP signal (FIG. 15A).
# Among the many cell colonies observed in the bright field images, GFP signal was detected from some of them by fluorescence excitation (FIG. 15B).
# mitochondria in mESC = test: Co-staining of mESC with CDy1 and MITOTRACKER Deep Red 633; type: cell-based, mouse
# Description: In this experiment mESC were incubated with 500 nM CDy1, 200 nM MITOTRACKER® Deep Red 633, and 4 mg/ml Hoechst for 30 minutes at 37° C. and washed with PBS two times. The cells were mounted on slide glass and the images were taken using a Nikon ECLIPSE Ti fluorescence microscope equipped with a ×100 objective lens (Pearson's correlation coefficient=0.88; scale bar, 5 μm).
# In a previous study (Kim et al., “Control of Muscle Differentiation by a Mitochondria-Targeted Fluorophore,” J. Am. Chem. Soc. 132(2): 576-579 (2009), which is hereby incorporated by reference in its entirety), CDy1 was among the compounds targeting mitochondria. To examine whether CDy1 localizes in mitochondria in mESC, the cells were co-stained with CDy1 and a mitochondria-staining commercial dye MITOTRACKER® Deep Red 633. […] In addition to the mitochondrial membrane potential which sequesters many cationic rhodamine and rosamine compounds, other factors such as stem cell specific proteins appear to play roles in the entry and retainment of CDy1 rendering it stem cell selective.
structure (smiles),measurement,setting,value
CCCCN(CCCC)c1ccc2c(-c3cccc(CN4CCOCC4)c3)c3ccc(=N)cc-3oc2c1 [CDy1],colonies both CDy1 and GFP positive (percent),"iPSC; 17 dpi, of 155 colonies",65%
same,colonies negative both for CDy1 and GFP (number),"iPSC; 17 dpi, of 155 colonies",24
same,colonies negative both for CDy1 and GFP (percent),"iPSC; 17 dpi, of 155 colonies",15%
same,colonies GFP-positive at 25 dpi (percent),iPSC; of 342 CDy1-positive but GFP-negative colonies selected at 10 dpi,99%
same,colonies GFP-positive at 25 dpi (number),"iPSC; of 342 CDy1-positive but GFP-negative colonies selected at 10 dpi, stained at 2 dpi",338
same,staining of mESC,mESC,stained both
same,staining of hESC,human ESC (hESC) (BG01V),stained both
same,staining of H522,[1],not
same,staining at 3 and 5 dpi,[2],scattered single cells stained
same,staining at 7 and 9 dpi,[2],some of the clusters were stained
same,GFP-positive iPS cell colonies from CDy1dim cells,[3],no colonies
same,GFP-positive iPS cell colonies per well from CDy1bright cells,[3],51 colonies per well
same,staining pattern compared with MITOTRACKER staining,mitochondria in mESC,very similar to MITOTRACKER® staining
same,Pearson's correlation coefficient of CDy1 and MITOTRACKER co-localization,"mitochondria in mESC; 500 nM CDy1, 200 nM MITOTRACKER Deep Red 633, 30 minutes at 37° C.",0.88
